Test results published in ChEMBL document CHEMBL3400006, “Improving the passive permeability of macrocyclic peptides: Balancing permeability with other physicochemical properties” (Bioorg Med Chem, 2015).
≈ marks a conversion by molar mass, not a printed value. Square brackets hold non-standard residues; d marks the D form. Peptide text beside a SMILES is read from it. 2Pal = N[C@@H](Cc1ccccn1)C(=O)O; 4Pal = N[C@@H](Cc1ccncc1)C(=O)O

Assays:
[1] = Solubility of the compound in phosphate buffer at pH 7.4 by chemi-luminescent nitrogen detection method; type: physicochemical
[2] = Lipophilicity, log D of the compound at pH 7.4 by ChromlogD analysis; type: physicochemical; conditions: buffer
[3] = Permeability of the compound at donor pH 7.4 and acceptor pH 7.4 after 3 hrs incubation by PAMPA analysis; type: ADME; conditions: read-out: permeability

Compound | solubility [1] | chromatographic logD [2] | Papp at 3 h [3]
CC(C)C[C@@H]1NC(=O)[C@@H](CC(C)C)N(C)C(=O)[C@H](CC(C)C)NC(=O)[C@H](Cc2ccc(O)cc2)NC(=O)[C@@H]2CCCN2C(=O)[C@H](CC(C)C)NC1=O | 192 µM (≈ 140 µg/mL) | 6.19 | 14.4 ×10⁻⁶ cm/s
CC(C)C[C@@H]1NC(=O)[C@H](Cc2ccc(O)cc2)NC(=O)[C@@H]2CCCN2C(=O)[C@H](CC(C)C)NC(=O)[C@H](CC(C)C)N(C)C(=O)[C@@H](CC(C)C)N(C)C1=O | 103 µM (≈ 76.3 µg/mL) | 7.52 | 34.7 ×10⁻⁶ cm/s
CC(C)C[C@@H]1NC(=O)[C@H](Cc2ccc(O)cc2)N(C)C(=O)[C@@H]2CCCN2C(=O)[C@H](CC(C)C)NC(=O)[C@H](CC(C)C)N(C)C(=O)[C@@H](CC(C)C)N(C)C1=O | 53.7 µM (≈ 40.5 µg/mL) | 8.32 | –
CC(C)C[C@@H]1NC(=O)[C@H](Cc2ccc(O)cc2)NC(=O)[C@@H]2CCCN2C(=O)[C@H](CC(C)C)NC(=O)[C@](C)(CC(C)C)NC(=O)[C@@H](CC(C)C)NC1=O | 78 µM (≈ 56.7 µg/mL) | 6.56 | 35 ×10⁻⁶ cm/s
CC(C)C[C@@H]1NC(=O)[C@@H](CC(C)C)NC(=O)[C@](C)(CC(C)C)NC(=O)[C@H](Cc2ccc(O)cc2)NC(=O)[C@@H]2CCCN2C(=O)[C@H](CC(C)C)NC1=O | 148 µM (≈ 108 µg/mL) | 6.11 | 17 ×10⁻⁶ cm/s
CC(C)C[C@@H]1NC(=O)[C@@H](CC(C)C)NC(=O)[C@H](CC(C)C)NC(=O)[C@@H](CC(C)C)NC(=O)[C@H](Cc2ccc(O)cc2)NC(=O)[C@@H]2CCCN2C(=O)[C@H](CC(C)C)NC1=O | 51.7 µM (≈ 42.7 µg/mL) | 5.98 | 13 ×10⁻⁶ cm/s
CC(C)C[C@@H]1NC(=O)[C@@H](CC(C)C)NC(=O)[C@H](CC(C)C)NC(=O)[C@@](C)(CC(C)C)NC(=O)[C@H](Cc2ccc(O)cc2)NC(=O)[C@@H]2CCCN2C(=O)[C@H](CC(C)C)NC1=O | 102 µM (≈ 86.1 µg/mL) | 6.65 | 30.3 ×10⁻⁶ cm/s
CC(C)C[C@@H]1NC(=O)[C@@H](CC(C)C)NC(=O)[C@H](Cc2ccc(O)cc2)NC(=O)[C@@H]2CCCN2C(=O)[C@H](CC(C)C)NC(=O)[C@](C)(CC(C)C)NC(=O)[C@@H](CC(C)C)NC1=O | 122 µM (≈ 103 µg/mL) | 6.88 | 18.5 ×10⁻⁶ cm/s
CC(C)C[C@@H]1NC(=O)[C@@H](CC(C)C)NC(=O)[C@H](CC(C)C)NC(=O)[C@@](C)(CC(C)C)NC(=O)[C@@H](Cc2ccc(O)cc2)NC(=O)[C@@H]2CCCN2C(=O)[C@H](CC(C)C)NC1=O | 28.5 µM (≈ 23.9 µg/mL) | 7.21 | 30 ×10⁻⁶ cm/s
CC(C)C[C@@H]1NC(=O)[C@@H](CC(C)C)NC(=O)[C@H]([C@@H](C)O)NC(=O)[C@H](Cc2ccc(O)cc2)NC(=O)[C@@H]2CCCN2C(=O)[C@H](CC(C)C)NC1=O | 372 µM (≈ 261 µg/mL) | 4.65 | < 0.65 ×10⁻⁶ cm/s
CC(C)C[C@@H]1NC(=O)[C@@H](CC(C)C)NC(=O)[C@@H]([C@H](C)O)NC(=O)[C@H](Cc2ccc(O)cc2)NC(=O)[C@@H]2CCCN2C(=O)[C@H](CC(C)C)NC1=O | 371 µM (≈ 260 µg/mL) | 4.2 | 1.05 ×10⁻⁶ cm/s

Results, then the molecule that gave them:

solubility [1] | chromatographic logD [2] | Papp at 3 h [3] | Compound
170 µM (≈ 121 µg/mL) | 5.53 | – | CC(C)C[C@@H]1NC(=O)[C@H](Cc2ccc(O)cc2)NC(=O)[C@@H]2CCCN2C(=O)[C@H](CC(C)C)NC(=O)[C@H](CC(C)C)NC(=O)[C@@H](CC(C)C)NC1=O
248 µM (≈ 177 µg/mL) | 5.57 | – | CC(C)C[C@@H]1NC(=O)[C@@H](CC(C)C)NC(=O)[C@@H](CC(C)C)NC(=O)[C@H](Cc2ccc(O)cc2)NC(=O)[C@H]2CCCN2C(=O)[C@@H](CC(C)C)NC1=O
324 µM (≈ 231 µg/mL) | 5.07 | – | CC(C)C[C@@H]1NC(=O)[C@H](CC(C)C)NC(=O)[C@@H](CC(C)C)NC(=O)[C@H](Cc2ccc(O)cc2)NC(=O)[C@@H]2CCCN2C(=O)[C@H](CC(C)C)NC1=O
206 µM (≈ 153 µg/mL) | 6.05 | 20 ×10⁻⁶ cm/s | CC(C)C[C@@H]1NC(=O)[C@H](Cc2ccc(O)cc2)NC(=O)[C@@H]2CCCN2C(=O)[C@H](CC(C)C)NC(=O)[C@H](CC(C)C)NC(=O)[C@H](Cc2ccccc2)NC1=O (cyclo(FLLPYL))
485 µM (≈ 363 µg/mL) | 4.75 | 1.35 ×10⁻⁶ cm/s | CC(C)C[C@@H]1NC(=O)[C@H](Cc2ccc(O)cc2)NC(=O)[C@@H]2CCCN2C(=O)[C@H](CC(C)C)NC(=O)[C@H](CC(C)C)NC(=O)[C@H](Cc2ccccn2)NC1=O (cyclo([2Pal]LLPYL))
451 µM (≈ 337 µg/mL) | 4.45 | < 0.65 ×10⁻⁶ cm/s | CC(C)C[C@@H]1NC(=O)[C@H](Cc2ccc(O)cc2)NC(=O)[C@@H]2CCCN2C(=O)[C@H](CC(C)C)NC(=O)[C@H](CC(C)C)NC(=O)[C@H](Cc2ccncc2)NC1=O (cyclo([4Pal]LLPYL))
